Assay type in all cases: cell-based
In test [1] the test system is cells obtained from Bortezomib-refractory MM patient. As to the kind of experiment: viability of purified patient MM cells. Conditions: in vitro. The text has this:
(§1) Besides nuclear condensation, NF-KB inhibitor triggered proteolytic cleavage of poly (ADP ribose) polymerase (PARP), a hallmark of apoptosis.

For test [2], the system named is MM cells. As to the kind of experiment: apoptosis of MM cells (DAPI, PARP cleavage, caspases). The protocol: Transcription factor NF-KB is linked to growth and survival of multiple myeloma (MM) cells and blockade of NF-KB activity. NPI-1387 (Formula IIB-b1; compound 24 shown above under scheme 4), a potent small-molecule inhibitor of upstream activator of NF-KB, was administered to MM cells and its effect on the viability of MM cells, including those resistant to conventional agents dexamethasone or doxorubicin is shown.
as §1
Both caspase-8 and caspase-9 activate downstream caspase-3. […] Collectively, these findings show the efficacy of NF-KB inhibitor to enhance MM cell killing, overcome drug-resistance, and improve patient outcome in MM.

Test [3] deals with MM cells. As to the kind of experiment: MM cell death after 48 hours on co-administration with other drugs. The protocol: In Vitro assays measuring the percentage of MM cell death after 48 hours were carried out with bortezomib and dexamethasone, each in concert with NPI-1387. […] (See FIGS. 70 and 71).
Test [4] has as its system CCD-27sk (human normal skin fibroblast). Put plainly: 48 hr cytotoxicity, CCD-27sk. As to conditions: 48 hr drug exposure. On the procedure: Human colon adenocarcinoma HT-29 (ATCC# HTB-38), prostate adenocarcinoma PC-3 (ATCC# CRL-1435), breast adenocarcinoma MDA-MB231 (ATCC# HTB-26), Multiple Myeloma RPMI 8226 (ATCC# CCL-155) and U266 (ATCC # TIB-196) cell lines and human normal fibroblast CCD-27sk (ATCC# CRL-1475) were all purchased from ATCC (Manassas, Va.). The cells were maintained in their respective ATCC recommended culture media at 37° C., 5% CO2 and 95% humidified air.
The cytotoxicity assays were performed by seeding individual cell lines at appropriate density in the 96 well flat-bottomed plates and allowed to attach for 24 hours at 37° C., 5% CO2 and 95% humidified air (RPMI 8226 and U266 cells were plated in 96 well plates on the day of compound addition). Serially diluted NPI-1387 was added in triplicate to cells at concentrations ranging from 160 nM to 20 μM. Final concentration of 0.25% (v/v) DMSO was used as the vehicle control. Cell viability was assessed 48 hours later by measuring the fluorescence of the reduction product of Resazurin by a Fusion microplate fluorometer (PerkinElmer) with λex=535 nm and λem=590 nm filters. The IC50 values (the drug concentration at which 50% of the maximal observed cytotoxicity is established) were calculated in XLFit 3.0 or XLFit 4.0 (ID Business Solutions Ltd) using a sigmoidal dose response model.

The next test concerns IκBα phosphorylation. As to the kind of experiment: phosphorylation of IκBα induced by Toll-like receptor ligands in RPMI 8226 cells. Conditions: 13 μM. On the procedure: One ml/well of 2×10^6/ml RPMI 8226 cells (#CCL-155C, American Type Culture Collection) were seeded in 6-well plate in LGM-3 medium and cultured for overnight at 37° C., 5% CO2 and 95% humidified air. Formula (IIB-A1) was added to RPMI 8226 cells at the final concentration of 13 μM for 1 hr. DMSO was used as a control. Cells were then stimulated with 50 ng/ml LPS, 2 μg/ml Lipoteichoic acid (LTA) and CpG DNA for various length of time. At the end of each period of stimulation, cells were harvested by centrifugation and cell pellets were washed once in ice-cold 1× Dulbecco's Phosphate buffered Saline (DPBS). To prepare samples for SDS-PAGE, cells were lysed in RIPA buffer (50 mM Tris-HCl, pH7.4, 0.9% NaCl, 1% Triton X-100, 0.25% Na-deoxycholate, 1 mM EDTA, 2 mM Na3VO4 and 1× protease inhibitors cocktail) for 15 min on ice. Cell lysates were cleared by centrifugation at 14,000 rpm, 4° C. for 10 min. Protein concentrations of cell lysates were determined by BCA protein assay kit prior to SDS-PAGE. Equal amount of proteins from various cell lysates were resolved on 10% NuPage MES precast gels and transferred to nitrocellulose membranes according to the manufacturer's instructions. […]

pIC50: −log10 of the molar value. Bounds are passed on as bounds.

For the compound `C=CC(=O)C1(C)CCCC2(C)C3=CCC(C)(C=C)C[C@@H]3CC[C@H]12` (stereo in doubt) [NPI-1387, 1-[(1S,4aS,7R)-1,4a,7-Trimethyl-7-vinyl-1,2,3,4,4a,6,7,8,8a,9,10,10a-dodecahydro-1-phenanthrenyl]-2-propen-1-one], in test [1], the “viability of cells from Bortezomib-refractory MM patient” value was “decreases the viability”. Further, the “Apoptic signaling in MM cells, intrinsic and extrinsic pathways” value with MM cells [2] is “triggered by NPI-1387”. For the same compound, the caspase activation entry in the test on MM cells [2] (25 μM) is “induces activation of caspase-8, caspase-9, followed by caspase-3 cleavage”. Besides, the “apoptosis (nuclear condensation, PARP cleavage)” value with MM cells [2] (respective IC50 for 48 h) is on record as “significant apoptosis”. Further, in the test with MM cells [3], the “percentage of MM cell death, co-administration with bortezomib” value is on record as “additive effects in increasing the percentage of MM cell death” and the “percentage of MM cell death, co-administration with dexamethasone” value is recorded as “additive effects in increasing the percentage of MM cell death”. The negative-log IC50 (pIC50) in test [4] is no more than 4.70.
`C=C[C@@]1(C)CCC=C2[C@H]1CC[C@@H]1[C@](C)(C(=O)NC3CCCCC3)CCC[C@@]21C` [Formula (IIB-A1), N-Cyclohexylamide Derivative of TTL]: the “phosphorylation of IκBα induced by Toll-like receptor ligands (LTA, CpG DNA)” value in the test with IκBα phosphorylation is “inhibits the phosphorylation of IκBα induced by Toll-like receptor ligands”; with IκBα phosphorylation (listed as formula (IIB-A1)) it was “inhibits the phosphorylation of IκBα induced by LTA and CpG DNA”.
